Measured values: the supplement of paper PMC10307832

Columns and labels:
Experiment in all cases: relative viability (nuclei count vs DMSO), 5 days (fraction); higher = more cells survive
[1] = compound: C1CC(C1)(C(=O)O)C(=O)O.[NH2-].[NH2-].[Pt+2] [Carboplatin]
Method in brief: (§1)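 Five library-drug doses, separated by factors of √10, were pinned into 1536-well plates holding lung cancer cell lines after an overnight stay at 37 °C. Cells were fixed, permeabilised and Hoechst-stained in one step after 5 days without medium change, then imaged at 4×. Viability compares treated-well with vehicle-well nuclei, counted in MetaXpress, as a median across plates. Passing plates had control CV below 25% and at least one doubling.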

[2] = compound: CC[C@H](C)N1C=C(C2=C(C=C(C=C21)C3=CN=C(C=C3)N4CCNCC4)C(=O)NCC5=C(C=C(NC5=O)C)C)C [GSK126]
Method in brief: as §1

[3] = compound: NS(=O)(=O)OC[C@@H]1C[C@@H](n2ccc3c(N[C@H]4CCc5ccccc54)ncnc32)C[C@@H]1O [MLN4924]
Method in brief: as §1

Row | Cell Line | relative viability ([1]; 0.08 µM) | relative viability ([1]; 0.253 µM) | relative viability ([1]; 0.8 µM) | relative viability ([1]; 2.53 µM) | relative viability ([1]; 8 µM) | relative viability ([2]; 0.08 µM) | relative viability ([2]; 0.253 µM) | relative viability ([2]; 0.8 µM) | relative viability ([2]; 2.53 µM) | relative viability ([2]; 8 µM) | relative viability ([3]; 0.04 µM) | relative viability ([3]; 0.1265 µM) | relative viability ([3]; 0.4 µM) | relative viability ([3]; 1.265 µM) | relative viability ([3]; 4 µM)
1 | NCI-H1395 | 1.16 | 0.885 | 0.833 | 0.749 | 0.766 | 1.03 | 0.926 | 0.893 | 1 | 0.957 | 0.868 | 0.951 | 0.618 | 0.354 | 0.381
2 | NCI-H1437 | 1.03 | 0.965 | 0.966 | 0.905 | 0.868 | 1.05 | 1 | 0.945 | 0.92 | 0.919 | 0.941 | 0.988 | 0.841 | 0.423 | 0.281
3 | NCI-H1563 | 0.963 | 1 | 1.03 | 0.946 | 1.02 | 1.04 | 0.999 | 1.06 | 1.04 | 0.965 | 1.42 | 1.21 | 0.818 | 0.494 | 0.511
4 | NCI-H1623 | 1.03 | 0.963 | 0.872 | 0.875 | 0.695 | 0.974 | 1.04 | 0.959 | 0.954 | 1 | 0.744 | 0.53 | 0.443 | 0.298 | 0.246
5 | NCI-H1648 | 1.13 | 0.878 | 0.871 | 0.6 | 0.813 | 0.932 | 0.783 | 1.07 | 1.2 | 0.725 | 0.635 | 0.448 | 0.329 | 0.246 | 0.32
6 | NCI-H1650 | 0.995 | 0.888 | 0.933 | 0.812 | 0.638 | 1.05 | 0.948 | 0.954 | 1.02 | 1.03 | 0.708 | 0.578 | 0.286 | 0.171 | 0.201
7 | NCI-H1651 | 0.996 | 1.01 | 0.948 | 0.861 | 0.679 | 1.09 | 0.957 | 0.956 | 1.05 | 1.09 | 1.02 | 1.04 | 0.967 | 0.503 | 0.202
8 | NCI-H1666 | 1.03 | 1.02 | 0.987 | 0.913 | 0.797 | 0.966 | 1.03 | 0.984 | 0.95 | 1.07 | 1.02 | 0.915 | 0.632 | 0.35 | 0.38
9 | NCI-H1703 | 1.27 | 1.1 | 0.998 | 1.05 | 1.01 | 1.21 | 0.834 | 0.96 | 1.04 | 1.13 | 0.43 | 0.314 | 0.255 | 0.136 | 0.141
10 | NCI-H1734 | 1.07 | 1.04 | 0.991 | 1.03 | 0.875 | 1.13 | 0.981 | 0.986 | 1.03 | 1.01 | 1.02 | 0.963 | 0.306 | 0.145 | 0.155
11 | NCI-H1755 | 1.05 | 1.03 | 1.04 | 1 | 0.966 | 1.04 | 1.06 | 0.978 | 1 | 1.06 | 0.954 | 0.905 | 0.547 | 0.255 | 0.198
12 | NCI-H1792 | 1.07 | 0.918 | 0.83 | 0.773 | 0.723 | 0.998 | 0.837 | 1.04 | 0.934 | 0.879 | 0.929 | 0.954 | 1.1 | 0.412 | 0.4
13 | NCI-H1793 | 0.968 | 0.98 | 0.908 | 0.906 | 1.1 | 1.07 | 0.948 | 0.826 | 1.11 | 0.855 | 0.91 | 0.982 | 1.01 | 0.473 | 0.361
14 | NCI-H1915 | 1.03 | 1.02 | 0.971 | 0.932 | 0.737 | 1.05 | 0.978 | 1.01 | 0.973 | 0.994 | 0.958 | 0.911 | 0.692 | 0.219 | 0.224
15 | NCI-H1944 | 0.887 | 0.967 | 0.922 | 0.981 | 0.644 | 1.1 | 0.902 | 1 | 0.998 | 1.13 | 0.975 | 0.788 | 0.583 | 0.176 | 0.176
16 | NCI-H1975 | 1 | 0.944 | 0.968 | 0.931 | 0.9 | 0.961 | 0.888 | 0.93 | 0.923 | 0.934 | 0.96 | 1.14 | 1.38 | 0.843 | 0.447
17 | NCI-H1993 | 0.988 | 1.02 | 0.967 | 0.878 | 0.8 | 0.97 | 0.982 | 0.955 | 1.02 | 1.03 | 0.877 | 0.758 | 0.596 | 0.531 | 0.658
18 | NCI-H2009 | 1.05 | 0.971 | 0.95 | 0.951 | 0.683 | 1.12 | 0.997 | 0.988 | 0.988 | 1.06 | 0.823 | 0.439 | 0.287 | 0.136 | 0.0977

Row | Cell Line | relative viability ([1]; 0.08 µM) | relative viability ([1]; 0.253 µM) | relative viability ([1]; 0.8 µM) | relative viability ([1]; 2.53 µM) | relative viability ([1]; 8 µM) | relative viability ([2]; 0.08 µM) | relative viability ([2]; 0.253 µM) | relative viability ([2]; 0.8 µM) | relative viability ([2]; 2.53 µM) | relative viability ([2]; 8 µM) | relative viability ([3]; 0.04 µM) | relative viability ([3]; 0.1265 µM) | relative viability ([3]; 0.4 µM) | relative viability ([3]; 1.265 µM) | relative viability ([3]; 4 µM)
19 | NCI-H2023 | 1.1 | 1.08 | 0.959 | 0.572 | 0.249 | 1.13 | 1.04 | 1.02 | 1.22 | 1.09 | 0.986 | 0.739 | 0.207 | 0.0741 | 0.0639
20 | NCI-H2085 | 1.08 | 1 | 0.981 | 1.01 | 0.905 | 1.06 | 1.05 | 0.958 | 0.943 | 1.02 | 0.978 | 1.01 | 1.12 | 0.772 | 0.541
21 | NCI-H2087 | 1.14 | 1.21 | 0.997 | 0.999 | 0.711 | 1.18 | 0.945 | 1 | 1.15 | 1.17 | 1.02 | 0.969 | 0.491 | 0.16 | 0.0937
22 | NCI-H2126 | 1.05 | 1.03 | 1.02 | 0.946 | 0.948 | 1.04 | 1.02 | 1.06 | 1.07 | 1 | 1.03 | 1.02 | 0.785 | 0.459 | 0.373
23 | NCI-H2170 | 0.957 | 0.944 | 0.972 | 0.964 | 0.864 | 1.03 | 1.05 | 0.881 | 1.03 | 0.932 | 1 | 0.92 | 0.406 | 0.164 | 0.197
24 | NCI-H2228 | 1.27 | 1.16 | 0.91 | 0.941 | 0.687 | 1.21 | 0.992 | 1.04 | 1.12 | 1.07 | 0.723 | 1.08 | 0.435 | 0.171 | 0.205
25 | NCI-H2342 | 1.06 | 0.987 | 1.07 | 1.02 | 0.873 | 1.12 | 1.04 | 1.07 | 1.05 | 1.17 | 1.18 | 0.931 | 0.97 | 0.788 | 0.57
26 | NCI-H2347 | 1.05 | 1 | 1.07 | 1.06 | 0.909 | 1.08 | 0.976 | 1.04 | 1.05 | 1 | 0.963 | 0.975 | 0.584 | 0.406 | 0.386
27 | NCI-H2405 | 1.1 | 1 | 1.05 | 1.03 | 0.885 | 1.03 | 0.946 | 0.98 | 0.984 | 1.03 | 1.06 | 0.979 | 0.586 | 0.29 | 0.27
28 | NCI-H3122 | 1.01 | 1.01 | 1.02 | 1.01 | 0.968 | 1.03 | 1 | 0.966 | 1.02 | 1 | 0.92 | 0.585 | 0.325 | 0.139 | 0.135
29 | PC-3 [JPC-3] | 1.14 | 1.08 | 1.05 | 0.992 | 0.96 | 1.03 | 0.999 | 1.06 | 1.03 | 1.12 | 0.994 | 1.1 | 0.397 | 0.432 | 0.396
30 | PC-14 | 1.09 | 0.998 | 0.997 | 0.684 | 0.309 | 1.02 | 1.01 | 0.935 | 1.03 | 0.942 | 1.04 | 0.93 | 0.624 | 0.153 | 0.111
31 | RERF-LC-KJ | 0.978 | 1.02 | 0.939 | 0.88 | 0.702 | 1.12 | 1.1 | 1.02 | 1.01 | 1.05 | 0.879 | 0.738 | 0.233 | 0.211 | 0.228
32 | SK-LU-1 | 1.16 | 1.07 | 1.06 | 0.975 | 0.802 | 1.01 | 1.05 | 1.02 | 1.14 | 1.08 | 0.99 | 0.799 | 0.369 | 0.191 | 0.201
33 | SK-MES-1 | 1.07 | 0.991 | 1.02 | 0.974 | 0.918 | 1.03 | 0.999 | 0.985 | 1.04 | 1.08 | 0.999 | 0.846 | 0.563 | 0.222 | 0.221
34 | SW 900 | 0.808 | 0.774 | 0.822 | 0.837 | 0.68 | 0.844 | 0.853 | 0.788 | 0.896 | 0.892 | 0.68 | 0.825 | 0.384 | 0.21 | 0.184
35 | SW 1573 | 1.05 | 1.02 | 0.992 | 0.972 | 0.702 | 1.21 | 1.08 | 1.02 | 1.05 | 1.24 | 1.16 | 0.954 | 0.332 | 0.0817 | 0.0856
